Measurements as given in patent publication US20260042802A1, “POLYPEPTIDE AND USE THEREOF” (priority 2024, published 2026).
Where a SMILES comes first, the peptide text is derived from it. Bridges are numbered along the chain shown (N, C = ends).

How the values were obtained:
[1] = system: mouse acetate acid writhing model; assay: Mouse acetate acid writhing model; assay type: in vivo, C57BL/6 mice
Text: Seventy SPF-grade healthy C57BL/6 mice, half male and half female, weighing 22-25 g and 8-10 weeks old, are randomly selected. Seventy C57BL/6 mice are weighed and numbered in ascending order of body weight (No. S1-S70). The mice are randomly divided into seven groups in terms of the randomized numerical table method, which are the saline group and the experimental groups, among which the experimental groups include the PPN-01 group, the PPN-04 group, the PPN-06 group, the PPN-11 group, the PPN-12 group, and the PPN-16 group. The dosing concentration (i.e., the concentration of added polypeptides PPN-01, PPN-04, PPN-06, PPN-11, PPN-12, and PPN-16) in each group is 10 mg/kg, with 10 mice in each group.
(§1) Saline Group: 10 healthy mice are routinely reared for one week; the saline is intraperitoneally injected once daily at a concentration of 10 ml/kg for 7 consecutive days; 15 min after the last injection is finished, 0.7% glacial acetic acid (10 ml/kg) is intraperitoneally injected; and each mouse is observed for their writhing behaviors.
Experimental Group: 10 healthy mice are routinely reared for one week; 10 ml/kg of different polypeptides are injected intraperitoneally at a concentration of 0.1 mL/10 g once daily for 7 consecutive days; 15 min after the last injection is finished, 0.7% glacial acetic acid (10 ml/kg) is intraperitoneally injected; and each mouse is observed for their behaviors in writhing.
During the above experiments, the time of first writhing (writhing latency) and the number of writhing in each mouse within 15 min are recorded immediately after the injection of glacial acetic acid solution in each group of mice. When behavioral responses such as inward concavity of the abdomen, extension of the torso and hind limbs, and elevation of the buttocks occur, it is considered to be a complete writhing response, and the results are shown in Table 3 and FIG. 6.
Forty SPF-grade healthy C57BL/6 mice, half male and half female, weighing 22-25 g and 8-10 weeks old, are randomly selected. Forty C57BL/6 mice are weighed and numbered in ascending order of body weight (No. 1 to No. 40). The mice are randomly divided into five groups according to the randomized numerical table method, namely, the saline group, the low-concentration group (2.5 mg/kg), the medium-concentration group (10 mg/kg), the high-concentration group (40 mg/kg), and the diclofenac sodium group (30 mg/kg), with eight mice in each group.
as §1, with “Group: 8” for “Group: 10”, “their behaviors in writhing. […]” for “their writhing behaviors.”

sciatic nerve in rats = assay: Compound action potential (CAP) of the sciatic nerve in rats; assay type: in vivo, Sprague-Dawley (SD) rats; conditions: 20 μL of 30, 100, 300 nM on sciatic nerve; before and after needling; vs negative control group (p<0.05)
Experimental: Four SPF-grade healthy Sprague-Dawley (SD) rats are randomly selected, half males and half females, weighing 180˜200 g, 6˜8 weeks old. The rats are first acclimatized and fed for 1 week, fasted for 12 h before the experiment, with free access to water.
Rats weighing between 180 g and 200 g are taken and anesthetized with 7% chloral hydrate solution at a concentration of 0.4 mL/100 g. […] Then, the fully anesthetized rats are placed on the operating table so that their backs are facing upwards and their paws are held in place with a string. The skin and connective tissue of the leg are cut sequentially, and the muscles between the biceps femoris and the gluteus superficialis are bluntly-dissected. […]
Observations are performed on rats in the polypeptide PPN-01 group and in the negative control drug lidocaine group, and the effect of each concentration of polypeptide PPN-01 on the peak amplitude of the positive and negative phases of the CAP in the sciatic nerve of rats is assessed by the inhibition rate. […]
Four to six CAPs within 2 min after each recording time period are selected for analysis, and the mean peak amplitude is calculated as the representative CAP peak amplitude and time course for each group, with the peak amplitude of the CAP being the difference between the baseline and the peak CAP.

[2] = 10 mg/kg i.p. once daily for 7 days, 0.7% glacial acetic acid 15 min after last injection, 10 mice

CSCC[C@@H]1NC(=O)CNC(=O)[C@H](CCC(=O)O)NC(=O)[C@@H]2CSSC[C@H](NC(=O)[C@H](Cc3ccc(O)cc3)NC(C)=O)C(=O)N[C@@H](CCC(N)=O)C(=O)N[C@@H](CCCCN)C(=O)N[C@@H](Cc3ccccc3)C(=O)N[C@@H](CC(C)C)C(=O)N[C@@H](C)C(=O)N3CCC[C@H]3C(=O)N[C@H]3CSSC[C@H](NC(=O)[C@H](CCC(=O)O)NC1=O)C(=O)N[C@@H](CCCCN)C(=O)N[C@@H](CC(C)C)C(=O)N[C@@H](Cc1c[nH]c4ccccc14)C(=O)N[C@H](C(=O)N[C@@H](CCCCN)C(=O)N[C@@H](CCCCN)C(=O)N[C@@H](CCCCN)C(=O)N[C@@H](CC(C)C)C(=O)N[C@@H](Cc1c[nH]c4ccccc14)C(N)=O)CSSC[C@H](NC(=O)[C@H](CCCCN)NC(=O)[C@H](CCCNC(=N)N)NC(=O)[C@H](CCC(=O)O)NC(=O)[C@H](CO)NC(=O)[C@H](CC(=O)O)NC3=O)C(=O)N2 [PPN-01] (Ac-YCQKFLAPCDSERKCCEGMECKLWCKKKLW-NH2; disulfide 2-16, 9-21, 15-25)
Number of writhing [1, 2]: 14.4 times/15 min
Time of first writhing [1, 2]: 4.15 min
analgesic effect on the mouse acetate acid writhing model ([1]; 10 mg/kg i.p., 7 days, compared with saline group): certain analgesic effect
peak amplitude of CAP (positive and negative phases) (sciatic nerve in rats): significantly decreased
